From ChEMBL document CHEMBL3046355, “Design, synthesis, and herbicidal activities of novel 2-cyanoacrylates containing isoxazole moieties” (2010)

Columns and labels:
Assay type in all cases: functional
Brassica napus [1] = assay: Herbicidal activity against Brassica napus (oilseed rape) assessed as inhibition of weed growth at 375 g/ha using postemergence treatment protocol; conditions: post-emergence
Amaranthus retroflexus [2] = assay: Herbicidal activity against Amaranthus retroflexus assessed as inhibition of weed growth at 1.5 kg/ha using postemergence treatment protocol; conditions: post-emergence
Amaranthus retroflexus [3] = assay: Herbicidal activity against Amaranthus retroflexus assessed as inhibition of weed growth at 750 g/ha using postemergence treatment protocol; conditions: post-emergence
Echinochloa crus-galli [4] = assay: Herbicidal activity against Echinochloa crus-galli (barnyard grass) assessed as inhibition of weed growth at 1.5 kg/ha using preemergence treatment protocol; conditions: pre-emergence
Digitaria sanguinalis [5] = assay: Herbicidal activity against Digitaria sanguinalis (hairy crabgrass) assessed as inhibition of weed growth at 1.5 kg/ha using post-emergence treatment protocol
Brassica napus [6] = assay: Herbicidal activity against Brassica napus (oilseed rape) assessed as inhibition of weed growth at 1.5 kg/ha using postemergence treatment protocol; conditions: post-emergence
Amaranthus retroflexus [7] = assay: Herbicidal activity against Amaranthus retroflexus assessed as inhibition of weed growth at 1.5 kg/ha using preemergence treatment protocol; conditions: pre-emergence
Brassica napus [8] = assay: Herbicidal activity against Brassica napus (oilseed rape) assessed as inhibition of weed growth at 750 g/ha using postemergence treatment protocol; conditions: post-emergence
Amaranthus retroflexus [9] = assay: Herbicidal activity against Amaranthus retroflexus assessed as inhibition of weed growth at 375 g/ha using postemergence treatment protocol; conditions: post-emergence
Digitaria sanguinalis [10] = assay: Herbicidal activity against Digitaria sanguinalis (hairy crabgrass) assessed as inhibition of weed growth at 1.5 kg/ha using pre-emergence treatment protocol
Echinochloa crus-galli [11] = assay: Herbicidal activity against Echinochloa crus-galli (barnyard grass) assessed as inhibition of weed growth at 1.5 kg/ha using postemergence treatment protocol; conditions: post-emergence
Amaranthus retroflexus [12] = assay: Herbicidal activity against Amaranthus retroflexus assessed as inhibition of weed growth at 150 g/ha using postemergence treatment protocol; conditions: post-emergence
Amaranthus retroflexus [13] = assay: Herbicidal activity against Amaranthus retroflexus assessed as inhibition of weed growth at 75 g/ha using postemergence treatment protocol; conditions: post-emergence
Brassica napus [14] = assay: Herbicidal activity against Brassica napus (oilseed rape) assessed as inhibition of weed growth at 75 g/ha using postemergence treatment protocol; conditions: post-emergence
Brassica napus [15] = assay: Herbicidal activity against Brassica napus (oilseed rape) assessed as inhibition of weed growth at 150 g/ha using postemergence treatment protocol; conditions: post-emergence
Brassica napus [16] = assay: Herbicidal activity against Brassica napus (oilseed rape) assessed as inhibition of weed growth at 1.5 kg/ha using preemergence treatment protocol; conditions: pre-emergence

| Compound | inhibition at 375 g/ha (Brassica napus [1]) | inhibition at 1500 g/ha (Amaranthus retroflexus [2]) | inhibition at 750 g/ha (Amaranthus retroflexus [3]) | inhibition at 1500 g/ha (Echinochloa crus-galli [4]) | inhibition at 1500 g/ha (Digitaria sanguinalis [5]) | inhibition at 1500 g/ha (Brassica napus [6]) | inhibition at 1500 g/ha (Amaranthus retroflexus [7]) | inhibition at 750 g/ha (Brassica napus [8]) | inhibition at 375 g/ha (Amaranthus retroflexus [9]) | inhibition at 1500 g/ha (Digitaria sanguinalis [10]) | inhibition at 1500 g/ha (Echinochloa crus-galli [11]) | inhibition at 150 g/ha (Amaranthus retroflexus [12]) | inhibition at 75 g/ha (Amaranthus retroflexus [13]) | inhibition at 75 g/ha (Brassica napus [14]) | inhibition at 150 g/ha (Brassica napus [15]) | inhibition at 1500 g/ha (Brassica napus [16]) |
| --- | --- | --- | --- | --- | --- | --- | --- | --- | --- | --- | --- | --- | --- | --- | --- | --- |
| CCOCCOC(=O)/C(C#N)=C(\NCc1cc(C(C)C)no1)SC | 52.3% | 94% | 37.6% | 0% | 48.4% | 100% | 25% | 76.9% | 0% | 0% | 32.6% | – | – | – | – | – |
| CCOCCOC(=O)/C(C#N)=C(\NCc1cc(C(C)C)no1)C(C)C | 97.7% | 100% | 100% | 5% | 48.4% | 100% | 100% | 100% | 54.6% | 0% | 12.5% | 0% | 0% | 52% | 92.8% | – |
| CCOCCOC(=O)/C(C#N)=C(\NCc1cc(Br)no1)SC | 87% | 99.1% | 0% | 2.4% | 55.3% | 100% | 0% | 93% | 0% | 0% | 36.8% | – | – | – | – | – |
| CCOCCOC(=O)/C(C#N)=C(\NCc1cc(Br)no1)C(C)C | 100% | 100% | 100% | 22.6% | 42.1% | 100% | 60% | 100% | 100% | 0% | 66.5% | 90% | 46.5% | 100% | 100% | – |
| CCOCCOC(=O)/C(C#N)=C(\NCc1cc(-c2ccc(C(C)(C)C)cc2)no1)SC | 9.8% | 100% | 45.7% | 0% | 55.8% | 100% | 10% | 22.2% | 28.3% | 0% | 0% | – | – | – | – | 0% |
| CCOCCOC(=O)/C(C#N)=C(\NCc1cc(-c2ccc(C(C)(C)C)cc2)no1)C(C)C | 41.7% | 100% | 89.1% | 0% | 24.7% | 100% | 0% | 85.8% | 54.3% | 0% | 0% | – | – | – | – | 0% |
| CCOCCOC(=O)/C(C#N)=C(\NCc1cc(-c2ccc(Cl)cc2Cl)no1)SC | 0% | 89.9% | 46% | 0% | 64.1% | 100% | 65.8% | 0% | 0% | 15.6% | 45.2% | – | – | – | – | 45% |
| CCOCCOC(=O)/C(C#N)=C(\NCc1cc(-c2ccc(Cl)cc2Cl)no1)C(C)C | 100% | 100% | 100% | 0% | 63.3% | 100% | 50.2% | 100% | 100% | 18.1% | 56.7% | 19.6% | 10.9% | 11.4% | 21.8% | 21.3% |
